From ChEMBL document CHEMBL1201862, “PubChem BioAssay data set” (2004) come the findings set out here.

Some test systems named below: 786-0; A549; BT-549; EKVX; HOP-92; Hs-578T; K562; Malme-3M; NCI-H23; OVCAR-5; OVCAR-8; PC-3; SF-268; SF-295; SK-OV-3; SR; U-251; UACC-257; T47D.
Holding throughout (experiment): growth of human tumour cells (NCI), 48 h

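Test compounds were applied to cells in 96-well plates for 48 hours at 5 doses. At the GI50, growth is halved.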 Calls of active or inactive are those of the source. No stated cut-off is given here; in the data, active = GI50 up to about 1.1 µM and inactive = higher.

As for `CN(C)CC(CN(C)C)c1ccccn1`, the GI50 in the test on 786-0, in the test on A549, with BT-549, with EKVX, in the test on HOP-92 and in the test on Hs-578T was > 100 µM (inactive) in each case. The GI50 with K562, in the test on Malme-3M, in the test with NCI-H23, in the test on OVCAR-5, with OVCAR-8 and in the test on PC-3 was > 100 µM (inactive) throughout. Further, the GI50 in the test with SF-268, in the test on SF-295, in the test on SK-OV-3, in the test with SR, in the test with U-251 and with UACC-257 was > 100 µM (inactive) each time.
With `O=Cc1ccc(-c2ccc(S(=O)(=O)O)cc2)o1`, the GI50 in the test on 786-0, in the test on A549, in the test with BT-549, in the test on EKVX, in the test on Hs-578T and in the test with K562 was > 100 µM (inactive) in each case. The GI50 in the test on Malme-3M, in the test on NCI-H23, with OVCAR-5, in the test on OVCAR-8, with PC-3 and with SF-268 was > 100 µM (inactive) each time. The GI50 in the test with SF-295, in the test on SK-OV-3, in the test with SR, in the test with U-251 and with UACC-257 was > 100 µM (inactive) each time.
On to `O=C1NC2c3c(I)sc(I)c3/C(=N\O)C2O1` (stereo not drawn), for which the GI50 in the test with 786-0 was 24.4 µM (inactive); with A549, 48.9 µM (inactive); with EKVX, 10.9 µM (inactive); in the test with HOP-92, 19.2 µM (inactive); in the test with Hs-578T it was 11.5 µM (inactive); with K562 it was 19.9 µM (inactive). In addition, the GI50 in the test on Malme-3M is 25.1 µM (inactive); in the test on NCI-H23, 23.2 µM (inactive); in the test on OVCAR-5, 30.5 µM (inactive); in the test with OVCAR-8, 18.4 µM (inactive); with PC-3, 39.2 µM (inactive); with SF-268, 24.3 µM (inactive). For the same compound, the GI50 is 45.6 µM (inactive) in the test with SF-295; 34.5 µM (inactive) with SK-OV-3; 29.9 µM (inactive) in the test with SR; 35.2 µM (inactive) in the test on T47D; 23.1 µM (inactive) in the test on U-251; 58.3 µM (inactive) with UACC-257.
`N=C(N)NC(=N)Nc1ccccc1.Sc1nc2ccccc2s1`: the GI50 with 786-0, in the test on A549, in the test on BT-549, in the test with EKVX, in the test on Hs-578T and in the test with K562 was > 100 µM (inactive) each time. Besides, the GI50 in the test with Malme-3M, with NCI-H23, with OVCAR-5, in the test with OVCAR-8, in the test on PC-3 and in the test with SF-268 was > 100 µM (inactive) each time. In addition, the GI50 with SF-295 was > 100 µM (inactive); in the test on SK-OV-3, > 100 µM (inactive); with T47D, 24.2 µM (inactive); in the test with U-251, > 100 µM (inactive); with UACC-257 it was > 100 µM (inactive).
Regarding `c1ccc2c(c1)SCCC2NC1=NCCO1` (stereo not drawn), the GI50 in the test on 786-0, in the test on A549, with EKVX, in the test with Hs-578T, in the test with K562 and in the test on Malme-3M was > 100 µM (inactive) each time. Further, the GI50 in the test on NCI-H23, with OVCAR-5, in the test on OVCAR-8, with PC-3, with SF-268 and in the test with SF-295 was > 100 µM (inactive) each time. Besides, the GI50 in the test on SK-OV-3, with SR, in the test with T47D and with U-251 was > 100 µM (inactive) each time.
`C/C=C\C(CC(=O)NCCC1CN(S(=O)(=O)C(F)(F)F)c2ccccc21)CC(=O)OC` (stereo not drawn): the GI50 in the test on 786-0 is 34.2 µM (inactive); in the test with A549 it was 45.8 µM (inactive); in the test on BT-549, 27.4 µM (inactive); in the test with EKVX, 37.4 µM (inactive); in the test on HOP-92, 23.9 µM (inactive); in the test with Hs-578T it was 22.6 µM (inactive). The GI50 in the test with K562 was 51.8 µM (inactive); in the test with Malme-3M it was 15.9 µM (inactive); in the test on NCI-H23, 34.7 µM (inactive); with OVCAR-5, 58.6 µM (inactive); with OVCAR-8, 38.8 µM (inactive); with PC-3, 35.4 µM (inactive). Also, the GI50 was 42.4 µM (inactive) in the test on SF-295; 64.3 µM (inactive) in the test on SK-OV-3; > 100 µM (inactive) with SR; 59.3 µM (inactive) with U-251; 48.2 µM (inactive) with UACC-257.
Consider `COC(=O)C1Cc2c([nH]c3ccccc23)-c2[nH]c3ccccc3c2CC(NC(C)=O)C(=O)NCC(=O)NCC(=O)N1` (stereo not drawn), for which the GI50 in the test on 786-0, with A549, in the test with BT-549, in the test on EKVX, in the test with HOP-92 and in the test with Hs-578T was > 100 µM (inactive) each time. For the same compound, the GI50 in the test on K562, in the test on Malme-3M, with NCI-H23, in the test with OVCAR-5, in the test on OVCAR-8 and with PC-3 was > 100 µM (inactive) each time. For the same compound, the GI50 in the test on SF-268, with SF-295, in the test on SK-OV-3, with T47D, with U-251 and with UACC-257 was > 100 µM (inactive) in each case.
Consider `Cc1ccc(-c2cc(-c3c(C)nn(C)c(=O)c3N)n[nH]2)cc1`, for which the GI50 was > 100 µM (inactive) in the test with 786-0; > 100 µM (inactive) in the test with A549; 83 µM (inactive) with EKVX; > 100 µM (inactive) in the test on HOP-92; > 100 µM (inactive) in the test on Hs-578T; > 100 µM (inactive) with K562. In addition, the GI50 in the test with Malme-3M, with NCI-H23, with OVCAR-5, with OVCAR-8, in the test on PC-3 and with SF-268 was > 100 µM (inactive) each time. The GI50 in the test with SF-295 was > 100 µM (inactive); in the test on SK-OV-3 it was > 100 µM (inactive); in the test on SR it was > 100 µM (inactive); in the test on T47D it was 53.5 µM (inactive); in the test with U-251, > 100 µM (inactive); in the test with UACC-257 it was > 100 µM (inactive).
On to `C=CCC1(O)CC(n2cc(C)c(=O)[nH]c2=O)OC1CO[Si](C)(C)C(C)(C)C` (stereo not drawn), for which the GI50 in the test on 786-0 was 44.1 µM (inactive); with A549, 35.5 µM (inactive); in the test on BT-549, 46.3 µM (inactive); with EKVX, 36.7 µM (inactive); in the test on HOP-92, 35.5 µM (inactive); in the test with K562 it was 61.4 µM (inactive). Besides, the GI50 in the test with NCI-H23 was 44 µM (inactive); in the test on OVCAR-5, 61.9 µM (inactive); in the test with OVCAR-8 it was 42.9 µM (inactive); in the test on PC-3, 36.5 µM (inactive); with SF-295, 42.9 µM (inactive); in the test on SR, 45 µM (inactive). Besides, the GI50 was 55.2 µM (inactive) in the test on T47D, 75.3 µM (inactive) in the test on U-251 and 52.4 µM (inactive) with UACC-257.
Turning to `Cc1oc2nc(N(C)C)nc(NN)c2c1C`, the GI50 in the test with 786-0, in the test on A549, in the test with BT-549, with EKVX, with HOP-92 and in the test with Hs-578T was > 100 µM (inactive) throughout. Moreover, the GI50 with K562, with NCI-H23, with OVCAR-5, with OVCAR-8, with PC-3 and in the test with SF-268 was > 100 µM (inactive) each time. For the same compound, the GI50 in the test with SF-295, in the test with T47D, in the test on U-251 and in the test on UACC-257 was > 100 µM (inactive) each time.
Take `COc1cc(C2c3cc(O)c(OC)cc3C3OCC2C3CO)ccc1O` (stereo not drawn): the GI50 with 786-0 is > 100 µM (inactive); with A549 it was > 100 µM (inactive); in the test on BT-549, > 100 µM (inactive); in the test on EKVX, > 100 µM (inactive); in the test with HOP-92, 7.6 µM (inactive); in the test with K562, > 100 µM (inactive). The GI50 in the test on Malme-3M, in the test on NCI-H23, in the test on OVCAR-5, with PC-3, with SF-268 and in the test on SF-295 was > 100 µM (inactive) each time. The GI50 in the test on SK-OV-3, in the test on SR, in the test with T47D and with U-251 was > 100 µM (inactive) throughout.
Consider `CN1c2ccccc2C2c3c(O)ccc(O)c3C=C([N+](=O)[O-])C21` (stereo not drawn), for which the GI50 in the test with 786-0 is 0.519 µM (active); in the test on A549, 1.56 µM (inactive); in the test with BT-549, 5.36 µM (inactive); in the test on EKVX it was 1.67 µM (inactive); with HOP-92 it was 2.28 µM (inactive); in the test with K562, 0.497 µM (active). Further, the GI50 with NCI-H23 was 1.69 µM (inactive); in the test with OVCAR-5, 1.83 µM (inactive); in the test on OVCAR-8, 0.286 µM (active); in the test on PC-3, 0.388 µM (active); in the test with SF-268 it was 0.388 µM (active); with SF-295, 2.53 µM (inactive). Also, the GI50 in the test with SK-OV-3 was 3.72 µM (inactive); in the test with SR it was 0.569 µM (active); with T47D it was 0.324 µM (active); in the test on U-251, 0.65 µM (active); with UACC-257, 0.19 µM (active).
